Experimental data published in the METLIN SMRT retention time set (Domingo-Almenara et al. 2019).

Assay: gradient 5% acetonitrile 3 min, to 50% in 2 min, to 85% in 15 min, held 3 min, 100 µL/min
Conditions: column: Zorbax Extend-C18 2.1 x 50 mm; eluents: water / acetonitrile, 0.1% formic acid
How it was run: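 Each retention time is based on an adduct peak selected computationally and verified by manual inspection. Measurements used HPLC–quadrupole time-of-flight mass spectrometry in positive and negative ionization mode on mixtures of ~100 pure standards. Chromatography ran on a Zorbax Extend-C18 column (2.1 × 50 mm, 1.8 μm) at 100 μL/min with water and acetonitrile, each containing 0.1% formic acid, and dead and dwell volumes of 40 μL and 900 μL.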

Compound	RP-LC retention time [s]
O=C(c1ccc(-c2cncnc2)nc1)N1CCN(c2ccccc2)CC1	716
Cc1ccc(NC(=O)N2CCC(c3cc(N)on3)CC2)cc1Cl	774
Nc1ccc(-c2ccc3ncc4ccc(=O)n(-c5cccc(C(F)(F)F)c5)c4c3c2)cn1	653
NC(=O)C1CCc2sc(C(=O)N3CCCCCC3)cc2C1 (stereo not given)	663
Cn1ncc2c3ccccc3n(CC(=O)N3CCN(c4ccccc4)CC3)c2c1=O	784
CCC(C)NC(=O)C1CCCN(c2nccnc2Sc2ccc(C)cc2)C1 (stereo not given)	1320
CCC(C)NC(=O)N1CCN(c2cc(-c3cc(F)ccc3OC)ncn2)CC1 (stereo not given)	636
COc1ccc(NC(=O)Cn2ccc3ccc(-c4nnc(C)o4)cc32)cc1Cl	811
O=C(Nc1nccs1)C1CCN(C(=O)C2c3ccccc3Oc3ccccc32)CC1	799
COCC1CN(C(=O)c2sccc2C)CC12CCNCC2 (stereo not given)	575
Cn1cc2c3c(cccc31)CN(C(=O)c1cccs1)CC2	876
Cc1ccc(N2CCC(NC(=O)CC3CCCC3)C2=O)cc1 (stereo not given)	839
CCn1nccc1C(=O)N1CCCC1c1ccccc1C (stereo not given)	836
Cc1ccc(NC(=O)Cn2c(=O)n(-c3ccccc3)c(=O)c3c2cc(C)n3C)c(Cl)c1	927
COc1ccc(NC(=O)c2c[nH]c3ncccc23)c(C)c1	657
COc1c(Sc2ccc([N+](=O)[O-])cc2)c(C)nn1-c1ccccc1	1130
CC1CCN(C(=O)c2ccc3ncnc(N4CCCC4)c3c2)CC1	619
COc1cc(Cl)c(C)cc1NC(=O)CN1C(=O)NC2(CCCCC2)C1=O	884
CN(CCc1noc(-c2ccc(C(=O)N3CCCC3)cc2)n1)C(=O)Cc1ccc(Cl)cc1	816
Cc1ccc(S(=O)(=O)NCC(=O)Oc2ccccc2C)cc1	881
CCN(C(=O)Cn1c(C(C)C)nc2c(c1=O)CN(Cc1ccccc1)CC2)c1ccccc1	757
Cc1nn(-c2ccc(F)cc2)c2nc(N3CCCC(C(=O)NC4CCCCC4)C3)sc12 (stereo not given)	1190
Cc1cc(C)cc(Nc2c(C(=O)N3CCCCC3C)cnc3nc(C)ccc23)c1 (stereo not given)	703

Compound	RP-LC retention time [s]
CN1CCN(CCCNC(=O)C2CCN(S(=O)(=O)c3ccc4c(c3)sc(=O)n4C)CC2)CC1	580
Clc1cc(-c2nc(-c3cccc(-c4ccn[nH]4)c3)no2)ccn1	949
COC(=O)c1ccccc1NC(=O)C12CCC(C1)C(C)(C)C2=O (stereo not given)	951
CCS(=O)(=O)N(C)C1CCc2nn(Cc3ccccc3)c(=O)n2CC1 (stereo not given)	710
CC(C)NC(=O)c1nnc(-c2ccc(S(=O)(=O)N3CCCCC3)cc2)o1	851
Cc1nc2cccnc2n1C1CCN(C(=O)Nc2cccc(Br)c2)CC1	673
O=C(Nc1cccc2cccnc12)C1CCN(c2ccc(-n3cccn3)nn2)CC1	745
CO[C@H]1C(=O)N(C2CCN(S(=O)(=O)Cc3ccccc3)CC2)[C@H]1c1ccncc1	632
CCn1ccc2sc(C)c(C(=O)NCc3ccc(SC)cc3)c2c1=O	866
Cc1csc(-c2cc(S(=O)(=O)NCCC(C)C)cn2CC(=O)N2CCCCC2)n1	1010
CCOC(=O)C(=O)Nc1ccc(C(F)(F)F)cc1	834
CCOC(=O)c1cnc2nc(C)ccc2c1Nc1ccc2c(c1)OCO2	680
COc1ccc(Cl)c2c(=O)c3c([nH]c12)CCN(CC(=O)Nc1ccccc1F)C3	604
COCCn1cc(CCNC(=O)Nc2cccc(F)c2)c2cccnc21	732
O=C(NCc1ccco1)c1ccccc1-c1nc(-c2ccccc2)no1	888
CC(C)n1cc(S(=O)(=O)NCc2cccs2)c2cccnc21	833
O=[N+]([O-])c1c(NCCCO)cc(Nc2ccc(F)cc2)c2nonc12	676
CC(C)(C)CC(=O)N1CCCC(c2nc(CNC(=O)C3CCC3)cs2)C1 (stereo not given)	774
O=C(Nc1ccc(F)cc1F)c1noc2c1CCCC2	883
COc1ccc(CNC(=O)C2(C)CCCN(S(=O)(=O)c3ccc(Br)cc3)C2)cc1 (stereo not given)	1020
Cc1ccc(C(C)NC(=O)CN2C(=O)NC3(CCCCC3)C2=O)cc1 (stereo not given)	804
Cc1nn2c(S(=O)(=O)N3CCC4(CC3)OCCO4)c(C)nc2s1	692
